ChEMBL document CHEMBL4507293 (2021)

Assays:
[1] = target: Cyclin-dependent kinase 15 (Homo sapiens) (UniProt Q96Q40); conditions: Compound concentration 100.0 nM
[2] = target: Mitogen-activated protein kinase kinase kinase 13 (Homo sapiens) (UniProt O43283); conditions: Compound concentration 100.0 nM
[3] = target: Tyrosine-protein kinase ITK/TSK (Homo sapiens) (UniProt Q08881); conditions: Compound concentration 100.0 nM
[4] = target: Platelet-derived growth factor receptor beta (Homo sapiens) (UniProt P09619); conditions: Compound concentration 100.0 nM
Sequence of Platelet-derived growth factor receptor beta (Homo sapiens) (P09619 whole entry): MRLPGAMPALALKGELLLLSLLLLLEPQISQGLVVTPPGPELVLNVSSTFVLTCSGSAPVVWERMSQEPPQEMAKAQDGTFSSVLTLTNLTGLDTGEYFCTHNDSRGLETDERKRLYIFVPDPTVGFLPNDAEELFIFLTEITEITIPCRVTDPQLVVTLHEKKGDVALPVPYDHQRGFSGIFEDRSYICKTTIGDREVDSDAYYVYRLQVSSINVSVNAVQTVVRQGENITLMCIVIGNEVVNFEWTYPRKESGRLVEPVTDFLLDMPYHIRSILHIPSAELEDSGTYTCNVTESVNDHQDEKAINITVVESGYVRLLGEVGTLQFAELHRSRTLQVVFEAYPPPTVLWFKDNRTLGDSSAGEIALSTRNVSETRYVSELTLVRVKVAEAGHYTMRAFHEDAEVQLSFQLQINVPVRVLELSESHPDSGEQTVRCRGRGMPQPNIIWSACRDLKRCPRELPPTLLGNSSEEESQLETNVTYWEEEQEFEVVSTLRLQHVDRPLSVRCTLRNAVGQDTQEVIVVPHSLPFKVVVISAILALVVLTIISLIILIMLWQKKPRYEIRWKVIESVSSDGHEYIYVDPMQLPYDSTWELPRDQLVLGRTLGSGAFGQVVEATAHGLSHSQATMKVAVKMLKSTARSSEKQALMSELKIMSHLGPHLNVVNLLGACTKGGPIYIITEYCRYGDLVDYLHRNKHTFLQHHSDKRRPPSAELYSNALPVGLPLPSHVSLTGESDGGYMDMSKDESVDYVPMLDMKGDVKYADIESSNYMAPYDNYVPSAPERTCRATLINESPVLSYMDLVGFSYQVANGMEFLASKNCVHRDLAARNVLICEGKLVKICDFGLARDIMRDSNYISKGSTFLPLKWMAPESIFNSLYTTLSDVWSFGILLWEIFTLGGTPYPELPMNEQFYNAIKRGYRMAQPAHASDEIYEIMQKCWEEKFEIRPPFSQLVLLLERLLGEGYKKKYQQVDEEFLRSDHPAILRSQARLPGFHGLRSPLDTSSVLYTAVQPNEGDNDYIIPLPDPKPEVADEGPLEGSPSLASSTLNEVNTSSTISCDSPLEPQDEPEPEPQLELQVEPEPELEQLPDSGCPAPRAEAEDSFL

[5] = target: Cyclin-dependent kinase 9 (Homo sapiens) (UniProt P50750); conditions: Compound concentration 100.0 nM
Sequence of Cyclin-dependent kinase 9 (Homo sapiens) (P50750 whole entry): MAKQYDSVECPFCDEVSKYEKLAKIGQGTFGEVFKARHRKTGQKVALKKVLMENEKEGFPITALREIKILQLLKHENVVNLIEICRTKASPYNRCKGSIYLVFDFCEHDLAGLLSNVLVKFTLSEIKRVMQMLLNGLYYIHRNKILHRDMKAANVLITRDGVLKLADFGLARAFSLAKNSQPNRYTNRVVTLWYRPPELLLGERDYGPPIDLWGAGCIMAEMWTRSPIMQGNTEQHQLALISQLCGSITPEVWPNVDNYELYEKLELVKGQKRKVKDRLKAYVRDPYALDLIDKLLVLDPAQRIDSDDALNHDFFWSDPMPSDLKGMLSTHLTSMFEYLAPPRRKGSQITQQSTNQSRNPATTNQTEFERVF

[6] = target: Ephrin type-B receptor 6 (Homo sapiens) (UniProt O15197); conditions: Compound concentration 100.0 nM
[7] = target: Dual specificity calcium/calmodulin-dependent 3',5'-cyclic nucleotide phosphodiesterase 1A (Homo sapiens, UniProt P54750); test: Biochemical assay (PDE1A)
Sequence of Dual specificity calcium/calmodulin-dependent 3',5'-cyclic nucleotide phosphodiesterase 1A (P54750 whole entry): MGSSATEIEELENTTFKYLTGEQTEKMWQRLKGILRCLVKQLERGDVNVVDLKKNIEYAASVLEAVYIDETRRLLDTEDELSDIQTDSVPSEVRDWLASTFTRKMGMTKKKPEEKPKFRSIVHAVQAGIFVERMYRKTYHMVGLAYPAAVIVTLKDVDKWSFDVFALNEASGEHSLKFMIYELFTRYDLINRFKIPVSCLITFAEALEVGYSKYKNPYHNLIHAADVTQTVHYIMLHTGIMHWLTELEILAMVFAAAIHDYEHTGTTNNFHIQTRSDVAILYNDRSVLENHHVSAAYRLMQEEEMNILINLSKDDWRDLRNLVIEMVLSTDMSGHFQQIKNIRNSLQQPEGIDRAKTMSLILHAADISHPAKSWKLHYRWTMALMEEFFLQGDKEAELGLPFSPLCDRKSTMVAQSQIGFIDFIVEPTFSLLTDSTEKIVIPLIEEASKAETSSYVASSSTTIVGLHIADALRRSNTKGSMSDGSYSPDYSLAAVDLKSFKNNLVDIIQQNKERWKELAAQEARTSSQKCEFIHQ

[8] = target: Calcium/calmodulin-dependent protein kinase type 1 (Homo sapiens) (UniProt Q14012); conditions: Compound concentration 100.0 nM
[9] = target: Cyclin-dependent kinase 8 (Homo sapiens) (UniProt P49336); conditions: Compound concentration 100.0 nM
[10] = target: Serine/threonine-protein kinase NIM1 (Homo sapiens) (UniProt Q8IY84); conditions: Compound concentration 100.0 nM
[11] = target: Mitogen-activated protein kinase kinase kinase 19 (Homo sapiens) (UniProt Q56UN5); conditions: Compound concentration 100.0 nM
[12] = target: 5-hydroxytryptamine receptor 6 (Homo sapiens) (UniProt P50406); conditions: Compound concentration 10.0 uM
[13] = test system: Epidermal growth factor receptor (Homo sapiens), P00533 [G719C]; conditions: Compound concentration 100.0 nM
[14] = target: Insulin-like growth factor 1 receptor (Homo sapiens) (UniProt P08069); conditions: Compound concentration 100.0 nM
Sequence of Insulin-like growth factor 1 receptor (Homo sapiens) (P08069 31-736 limits assumed): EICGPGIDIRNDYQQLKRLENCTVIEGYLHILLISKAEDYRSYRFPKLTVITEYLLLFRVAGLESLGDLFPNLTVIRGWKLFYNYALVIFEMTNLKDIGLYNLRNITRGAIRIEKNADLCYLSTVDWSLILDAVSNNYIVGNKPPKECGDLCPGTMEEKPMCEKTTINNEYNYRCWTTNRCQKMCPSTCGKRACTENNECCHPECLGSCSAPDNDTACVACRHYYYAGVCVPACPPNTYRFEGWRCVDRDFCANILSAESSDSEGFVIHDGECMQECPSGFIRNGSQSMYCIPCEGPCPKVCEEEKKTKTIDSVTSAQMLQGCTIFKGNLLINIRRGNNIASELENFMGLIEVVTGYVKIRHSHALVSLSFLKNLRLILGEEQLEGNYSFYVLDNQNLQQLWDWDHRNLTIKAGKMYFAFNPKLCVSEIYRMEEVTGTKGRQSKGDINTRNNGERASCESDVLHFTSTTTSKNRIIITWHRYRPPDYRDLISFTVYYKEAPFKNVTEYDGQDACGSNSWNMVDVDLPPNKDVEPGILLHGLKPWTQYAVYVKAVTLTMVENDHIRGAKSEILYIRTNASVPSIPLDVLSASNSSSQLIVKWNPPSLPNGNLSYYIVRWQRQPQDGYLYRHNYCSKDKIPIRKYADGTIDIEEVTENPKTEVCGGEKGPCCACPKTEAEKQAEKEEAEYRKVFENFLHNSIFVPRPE
Sequence of Insulin-like growth factor 1 receptor (Homo sapiens) (P08069 741-1367 limits assumed): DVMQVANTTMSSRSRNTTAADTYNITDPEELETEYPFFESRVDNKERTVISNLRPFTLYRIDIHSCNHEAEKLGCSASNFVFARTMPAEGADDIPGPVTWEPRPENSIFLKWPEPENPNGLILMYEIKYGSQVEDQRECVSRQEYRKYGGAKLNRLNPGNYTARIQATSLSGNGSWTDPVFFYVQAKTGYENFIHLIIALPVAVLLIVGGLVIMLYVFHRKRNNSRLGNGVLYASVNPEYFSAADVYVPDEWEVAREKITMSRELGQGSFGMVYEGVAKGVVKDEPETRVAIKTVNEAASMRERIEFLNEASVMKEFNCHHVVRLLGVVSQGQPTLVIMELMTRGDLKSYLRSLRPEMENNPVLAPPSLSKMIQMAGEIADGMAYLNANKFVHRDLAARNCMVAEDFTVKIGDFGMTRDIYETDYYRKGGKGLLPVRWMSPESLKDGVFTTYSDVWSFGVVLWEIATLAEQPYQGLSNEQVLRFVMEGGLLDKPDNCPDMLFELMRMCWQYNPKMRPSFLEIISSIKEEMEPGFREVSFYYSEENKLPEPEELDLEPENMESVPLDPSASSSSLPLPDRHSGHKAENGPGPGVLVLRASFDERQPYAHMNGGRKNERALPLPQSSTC

[15] = target: Serine/threonine-protein kinase 3 (Homo sapiens) (UniProt Q13188); conditions: Compound concentration 100.0 nM
[16] = target: 5-hydroxytryptamine receptor 7 (Homo sapiens, UniProt P34969); test: GPCRScan assay: inhibition of 5-HT7A; set-up: radioligand conc. used [nm] 5.0 – 6.0, parental cells Stable HEK
[17] = target: Aurora kinase C (Homo sapiens) (UniProt Q9UQB9); conditions: Compound concentration 100.0 nM
[18] = target: Alpha-2A adrenergic receptor (Homo sapiens) (UniProt P08913); conditions: Compound concentration 10.0 uM
[19] = test system: Phosphatidylinositol 4,5-bisphosphate 3-kinase catalytic subunit alpha isoform (Homo sapiens), P42336 [C420R]; conditions: Compound concentration 100.0 nM
[20] = target: Tyrosine-protein kinase JAK1 (Homo sapiens) (UniProt P23458); conditions: Compound concentration 100.0 nM
[21] = target: Mitogen-activated protein kinase 11 (Homo sapiens) (UniProt Q15759); conditions: Compound concentration 100.0 nM
[22] = test system: Tyrosine-protein kinase ABL1 (Homo sapiens), P00519 [F317L]; conditions: Compound concentration 100.0 nM
[23] = test system: Epidermal growth factor receptor (Homo sapiens), P00533 [UNDEFINED MUTATION]; conditions: Compound concentration 100.0 nM
[24] = target: Serine/threonine-protein kinase Nek9 (Homo sapiens) (UniProt Q8TD19); conditions: Compound concentration 100.0 nM
[25] = target: Serine/threonine-protein kinase N1 (Homo sapiens) (UniProt Q16512); conditions: Compound concentration 100.0 nM
[26] = target: Death-associated protein kinase 2 (Homo sapiens) (UniProt Q9UIK4); conditions: Compound concentration 100.0 nM
[27] = target: Serine/threonine-protein kinase TNNI3K (Homo sapiens) (UniProt Q59H18); conditions: Compound concentration 100.0 nM
[28] = target: Tyrosine-protein kinase Lck (Homo sapiens) (UniProt P06239); conditions: Compound concentration 100.0 nM
Sequence of Tyrosine-protein kinase Lck (Homo sapiens) (P06239 2-509 limits assumed): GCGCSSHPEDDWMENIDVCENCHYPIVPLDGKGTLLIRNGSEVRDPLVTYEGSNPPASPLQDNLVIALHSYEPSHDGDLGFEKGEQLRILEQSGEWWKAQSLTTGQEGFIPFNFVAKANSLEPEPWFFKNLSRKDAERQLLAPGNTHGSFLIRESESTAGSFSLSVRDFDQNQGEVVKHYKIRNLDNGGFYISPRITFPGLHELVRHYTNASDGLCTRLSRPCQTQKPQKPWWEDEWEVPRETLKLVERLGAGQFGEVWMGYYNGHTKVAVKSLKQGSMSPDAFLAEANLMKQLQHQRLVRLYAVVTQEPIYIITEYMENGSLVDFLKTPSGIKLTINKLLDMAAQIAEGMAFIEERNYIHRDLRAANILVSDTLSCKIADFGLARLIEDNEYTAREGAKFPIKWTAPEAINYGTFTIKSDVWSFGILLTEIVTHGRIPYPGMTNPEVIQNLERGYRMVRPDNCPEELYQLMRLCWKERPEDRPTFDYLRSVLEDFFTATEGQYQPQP

[29] = target: Serine/threonine-protein kinase Nek7 (Homo sapiens) (UniProt Q8TDX7); conditions: Compound concentration 100.0 nM
[30] = target: Dual specificity tyrosine-phosphorylation-regulated kinase 2 (Homo sapiens) (UniProt Q92630); conditions: Compound concentration 100.0 nM
Rattus norvegicus [31] = species on record: Rattus norvegicus; test: Inhibition of Glycine, Strychnine-Sensitive at 10 µM in the Eurofins-Panlabs radioligand binding assay (Eurofins_assay_239000); conditions: Compound concentration 10.0 uM
[32] = target: Rod cGMP-specific 3',5'-cyclic phosphodiesterase subunit alpha (Homo sapiens, UniProt P16499); test: Biochemical assay (PDE6A)
[33] = target: Neurotensin receptor type 1 (Homo sapiens) (UniProt P30989); test: Neurotensin NT1 Eurofins-Panlabs radioligand binding assay; set-up: ligand concentration 0.02 nM, non-specific ligand with concentration 1 µM Neurotensin, incubation time 45 min, incubation temperature 25 °C; conditions: Compound concentration 10.0 uM
[34] = target: Purinergic P2Y (Rattus norvegicus) (UniProt O35811+Q9EPX4+P49651+Q63371+P41232+O35881+Q6GUG4); conditions: Compound concentration 10.0 uM
[35] = target: Glucocorticoid receptor (Homo sapiens) (UniProt P04150); test: Glucocorticoid Eurofins-Panlabs radioligand binding assay; conditions: Compound concentration 10.0 uM
[36] = target: C-C chemokine receptor type 1 (Homo sapiens) (UniProt P32246); test: Chemokine CCR1 Eurofins-Panlabs radioligand binding assay; conditions: Compound concentration 10.0 uM
Rattus norvegicus [37] = species on record: Rattus norvegicus; test: Glutamate, NMDA, Polyamine Eurofins-Panlabs radioligand binding assay; assay type: protein-complex assay; set-up: ligand concentration 2 nM; conditions: Compound concentration 10.0 uM
[38] = target: Adenosine receptor A2a (Homo sapiens) (UniProt P29274); conditions: Compound concentration 10.0 uM
[39] = target: Mitogen-activated protein kinase 3 (Homo sapiens) (UniProt P27361); test: Inhibition of Protein Serine/Threonine Kinase, MAPK3 (ERK1) at 10 µM in the Eurofins-Panlabs enzyme assay (Eurofins_assay_171000); conditions: Compound concentration 10.0 uM
[40] = target: Type-1 angiotensin II receptor (Homo sapiens) (UniProt P30556); test: Angiotensin AT1 Eurofins-Panlabs radioligand binding assay; conditions: Compound concentration 10.0 uM
[41] = target: Phosphodiesterase 3 (Homo sapiens) (UniProt Q14432+Q13370); test: Inhibition of Phosphodiesterase PDE3 at compound concentration of 10.0 uM in the Eurofins-Panlabs enzyme assay (Eurofins_assay_152000); assay type: protein assay; set-up: substrate with concentration 1.01 uM [3H] cAMP + cAMP, incubation time 20 min, incubation temperature 25 C; conditions: Compound concentration 10.0 uM
Caspase-8 (Homo sapiens) = Caspase-8 (Homo sapiens) (UniProt Q14790); test: Peptidase, CASP8 (Caspase 8) Eurofins-Panlabs enzyme assay; conditions: Compound concentration 10.0 uM
[42] = target: Prostaglandin E2 receptor EP1 subtype (Homo sapiens) (UniProt P34995); test: Prostanoid EP1 Eurofins-Panlabs radioligand binding assay; conditions: Compound concentration 10.0 uM
[43] = target: Endothelin receptor type B (Homo sapiens) (UniProt P24530); conditions: Compound concentration 10.0 uM

Sequence of Cyclin-dependent kinase 15 (Homo sapiens) (Q96Q40 whole entry): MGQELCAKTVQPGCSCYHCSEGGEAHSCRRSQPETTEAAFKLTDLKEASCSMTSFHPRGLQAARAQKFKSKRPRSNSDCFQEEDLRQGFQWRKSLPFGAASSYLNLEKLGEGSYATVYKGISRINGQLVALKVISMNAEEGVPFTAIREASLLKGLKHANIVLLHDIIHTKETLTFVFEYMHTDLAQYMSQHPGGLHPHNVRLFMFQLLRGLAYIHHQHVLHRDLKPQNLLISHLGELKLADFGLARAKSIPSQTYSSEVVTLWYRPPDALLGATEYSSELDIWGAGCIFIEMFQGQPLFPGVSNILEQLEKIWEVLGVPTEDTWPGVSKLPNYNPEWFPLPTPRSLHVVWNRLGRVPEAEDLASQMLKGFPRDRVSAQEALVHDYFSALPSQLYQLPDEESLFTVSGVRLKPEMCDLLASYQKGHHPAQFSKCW
Sequence of Tyrosine-protein kinase ITK/TSK (Homo sapiens) (Q08881 whole entry): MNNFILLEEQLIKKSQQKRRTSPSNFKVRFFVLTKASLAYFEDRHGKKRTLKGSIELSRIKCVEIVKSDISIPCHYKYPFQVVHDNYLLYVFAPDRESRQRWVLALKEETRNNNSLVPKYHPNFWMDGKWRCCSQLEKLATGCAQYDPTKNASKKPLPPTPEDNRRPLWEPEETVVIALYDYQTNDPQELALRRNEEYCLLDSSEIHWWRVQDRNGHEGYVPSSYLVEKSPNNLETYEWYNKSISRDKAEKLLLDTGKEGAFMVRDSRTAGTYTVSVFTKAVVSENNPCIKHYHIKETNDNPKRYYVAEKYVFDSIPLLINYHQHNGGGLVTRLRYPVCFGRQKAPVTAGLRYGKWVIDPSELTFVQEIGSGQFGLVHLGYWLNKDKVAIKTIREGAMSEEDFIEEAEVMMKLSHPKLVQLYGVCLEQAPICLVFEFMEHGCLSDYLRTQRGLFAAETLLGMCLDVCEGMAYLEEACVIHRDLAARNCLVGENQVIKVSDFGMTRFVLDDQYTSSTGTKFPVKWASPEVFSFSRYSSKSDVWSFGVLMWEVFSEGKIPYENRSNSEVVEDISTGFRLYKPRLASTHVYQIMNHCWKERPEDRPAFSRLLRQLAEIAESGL

`CC(C)CC(=O)N1CCc2nc(-c3ccc(Br)cc3)nc(N(C)Cc3ccccc3)c2C1` [THPP-1-NC] was tested, and the residual activity [1] was 100%, the residual activity [2] was 66% and the residual activity [3] was 100%. The residual activity [4] was 100%, the residual activity [5] was 100% and the residual activity [6] was 91%. The Ki [7] was > 58300 nM (not active), the residual activity [8] was 100% and the residual activity [9] was 82%. The residual activity [10] was 100%, the residual activity [11] was 100% and the inhibition [12] was 0.81%. For the same compound, the residual activity [13] was 100%, the residual activity [14] was 83% and the residual activity [15] was 100%. It also gave a Ki [16] of 578 nM, a residual activity [17] of 100% and an inhibition [18] of 48.4%. For the same compound, the residual activity [19] was 87%, the residual activity [20] was 100% and the residual activity [21] was 100%. The residual activity [22] was 100%, the residual activity [23] was 100% and the residual activity [24] was 100%. It also gave a residual activity [25] of 100%, a residual activity [26] of 100% and a residual activity [27] of 100%. It also gave a residual activity [28] of 100%, a residual activity [29] of 100% and a residual activity [30] of 84%.

`COCCOc1nc(-c2ccc(Cl)nc2)nc2c1CN(C(=O)c1ncn3ccccc13)CC2` [THPP-1] showed a residual activity [1] of 100%, an inhibition (Rattus norvegicus [31]) of 15% and a Ki [32] of 44 nM. It also gave a residual activity [2] of 87%, an inhibition [33] of 10% and an inhibition [34] of 5%. It also gave a residual activity [3] of 100%, a residual activity [4] of 100% and an inhibition [35] of -6%. It also gave a residual activity [5] of 100%, an inhibition [36] of 11% and a residual activity [6] of 78%. The inhibition (Rattus norvegicus [37]) was 11%, the Ki [7] was > 50000 nM (not active) and the residual activity [8] was 100%. It also gave a residual activity [9] of 100%, a residual activity [10] of 100% and a residual activity [11] of 100%. It also gave an inhibition [12] of -4.55%, a residual activity [13] of 85% and an inhibition [38] of 17%. It also gave an inhibition [39] of 6%, a residual activity [14] of 82% and a residual activity [15] of 100%. The residual activity [17] was 95%, the residual activity [19] was 95% and the residual activity [20] was 100%. The residual activity [21] was 100%, the residual activity [22] was 100% and the inhibition [40] was 3%. The residual activity [23] was 85%, the residual activity [24] was 100% and the residual activity [25] was 100%. For the same compound, the inhibition [41] was 45%, the residual activity [26] was 100% and the residual activity [27] was 100%. For the same compound, the residual activity [28] was 100%, the inhibition (Caspase-8 (Homo sapiens)) was -3% and the residual activity [29] was 100%. It also gave an inhibition [42] of -1%, a residual activity [30] of 100% and an inhibition [43] of 0%.
